Consider 20 molecules from patent US20240400564A1 (Syndax Pharmaceuticals, Inc, priority 2021, published 2024).

The data set deals with hERG (Homo sapiens, UniProt Q12809). Briefly: Patch clamp assay (hERG tail currents, whole-cell).
Chain of hERG (Q12809 whole entry): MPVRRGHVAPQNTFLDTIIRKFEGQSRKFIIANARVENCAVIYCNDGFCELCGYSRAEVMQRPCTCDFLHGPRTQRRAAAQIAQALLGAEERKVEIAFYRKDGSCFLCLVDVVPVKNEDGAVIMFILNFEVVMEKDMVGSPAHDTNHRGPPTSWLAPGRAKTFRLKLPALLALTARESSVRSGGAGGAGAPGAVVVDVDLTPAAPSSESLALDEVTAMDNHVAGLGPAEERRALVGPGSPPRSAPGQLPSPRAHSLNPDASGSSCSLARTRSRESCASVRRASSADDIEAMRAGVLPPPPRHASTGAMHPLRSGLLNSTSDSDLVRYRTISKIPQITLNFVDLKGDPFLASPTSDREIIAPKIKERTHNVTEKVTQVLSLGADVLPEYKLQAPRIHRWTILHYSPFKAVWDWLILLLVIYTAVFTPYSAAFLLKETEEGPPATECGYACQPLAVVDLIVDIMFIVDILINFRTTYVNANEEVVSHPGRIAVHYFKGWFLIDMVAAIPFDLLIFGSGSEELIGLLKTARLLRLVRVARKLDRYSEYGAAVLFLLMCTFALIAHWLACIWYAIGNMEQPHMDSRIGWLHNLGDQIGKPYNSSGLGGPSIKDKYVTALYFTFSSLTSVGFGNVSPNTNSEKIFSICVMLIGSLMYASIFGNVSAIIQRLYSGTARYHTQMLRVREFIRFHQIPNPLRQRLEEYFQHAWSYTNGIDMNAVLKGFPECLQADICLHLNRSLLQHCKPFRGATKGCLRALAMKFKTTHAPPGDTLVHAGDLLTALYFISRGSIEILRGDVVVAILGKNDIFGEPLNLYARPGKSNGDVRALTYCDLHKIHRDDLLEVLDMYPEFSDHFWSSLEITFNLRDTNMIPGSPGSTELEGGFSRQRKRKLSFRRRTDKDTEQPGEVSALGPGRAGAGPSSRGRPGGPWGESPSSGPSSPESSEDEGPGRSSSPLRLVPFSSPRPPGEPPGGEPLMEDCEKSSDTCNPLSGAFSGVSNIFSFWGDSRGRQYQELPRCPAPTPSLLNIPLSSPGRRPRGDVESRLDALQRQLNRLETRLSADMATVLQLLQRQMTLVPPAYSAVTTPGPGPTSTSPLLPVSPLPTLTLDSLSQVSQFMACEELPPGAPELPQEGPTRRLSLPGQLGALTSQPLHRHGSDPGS

Procedure: The 35 mm culture dishes upon which cells were seeded at a density allowing single cells to be recorded were placed on the dish holder of the microscope and continuously perfused (at approximately 1 mL/min) with the bath solution described in section 4.6. All solutions applied to cells including the pipette solution were maintained at room temperature (19° C. to 30° C.). After formation of a Gigaohm seal between the patch electrodes and individual hERG stably transfected HEK 293 cells (pipette resistance range: 2.0 MS to 7.0 MS; seal resistance range: >1GΩ) the cell membrane across the pipette tip was ruptured to assure electrical access to the cell interior (whole-cell patch-configuration). In case the quality of the seal was poor, the process of seal formation was repeated with a different cell and a new pipette. As soon as a stable seal could be established, hERG outward tail currents were measured upon depolarization of the cell membrane to +20 mV for 2 s (activation of channels) from a holding potential of −80 mV and upon subsequent repolarization to −40 mV for 3 s. This voltage protocol (as shown below) was run at least 10 times at intervals of 10 s. If current density was judged to be too low for measurement, another cell was recorded.
During wash-in of the test item the voltage protocol indicated above was run continuously again at 10 s intervals until the steady-state level of block was reached.
The IC50 was determined by fitting the dose response curve with a 2-parameter logistic function (amax=100%).

For `CCNS(=O)(=O)N[C@@H]1CC[C@@H](CN2CCC3(CC2)CN(c2ncncc2Oc2ccc(F)cc2C(=O)N(CC(F)(F)F)C(C)C)C3)OC1` [Example 153, 2-((4-(7-(((2S,5R)-5-((N-Ethylsulfamoyl)amino)tetrahydro-2H-pyran-2-yl)methyl)-2,7-diazaspiro[3.5]nonan-2-yl)pyrimidin-5-yl)oxy)-5-fluoro-N-isopropyl-N-(2,2,2-trifluoroethyl)benzamide], for the setting “30 μM compound”, the “hERG % Remaining” value is reported as “+++ (≥66%)”. In the case of `CNS(=O)(=O)N[C@@H]1CC[C@@H](CN2CCC3(CC2)CN(c2ncncc2Oc2ccc(F)cc2C(=O)N(C(C)C)C2CC(F)(F)C2)C3)OC1` [Example 154, N-(3,3-Difluorocyclobutyl)-5-fluoro-N-isopropyl-2-((4-(7-(((2S,5R)-5-((N-methylsulfamoyl)amino)tetrahydro-2H-pyran-2-yl)methyl)-2,7-diazaspiro[3.5]nonan-2-yl)pyrimidin-5-yl)oxy)benzamide], the “hERG % Remaining” value is “+++ (≥66%)” (10 μM compound); “++ (233% and ≤66%)” (30 μM compound). Turning to `CCNS(=O)(=O)N[C@@H]1CC[C@@H](CN2CCC3(CC2)CN(c2ncncc2Oc2ccc(F)cc2C(=O)N(C(C)C)C2CC(F)(F)C2)C3)OC1` [Example 155, N-(3,3-Difluorocyclobutyl)-2-((4-(7-(((2S,5R)-5-((N-ethylsulfamoyl)amino)tetrahydro-2H-pyran-2-yl)methyl)-2,7-diazaspiro[3.5]nonan-2-yl)pyrimidin-5-yl)oxy)-5-fluoro-N-isopropylbenzamide], the “hERG % Remaining” value is “+++ (≥66%)” (10 μM compound); “++ (233% and ≤66%)” (30 μM compound). With `C[C@@H]1COC[C@@H](C)N1C(=O)c1cc(F)ccc1Oc1cncnc1N1CC2(CCN(C[C@@H]3CC[C@@H](NS(=O)(=O)NCC4CC4)CO3)CC2)C1` [Example 158, (Cyclopropylmethyl)({[(3R,6S)-6-{[2-(5-{2-[(3R,5R)-3,5-dimethylmorpholine-4-carbonyl]-4-fluorophenoxy}pyrimidin-4-yl)-2,7-diazaspiro[3.5]nonan-7-yl]methyl}oxan-3-yl]sulfamoyl})amine], for the setting “30 μM compound”, the “hERG % Remaining” value is on record as “+++ (≥66%)”.

As for `C[C@@H]1COC[C@H](C)N1C(=O)c1cc(F)ccc1Oc1cncnc1N1CC2(CCN(C[C@@H]3CC[C@@H](NS(=O)(=O)N4CCC4)CO3)CC2)C1` [Example 161, N-((3R,6S)-6-((2-(5-(2-((3R,5S)-3,5-Dimethylmorpholine-4-carbonyl)-4-fluorophenoxy)pyrimidin-4-yl)-2,7-diazaspiro[3.5]nonan-7-yl)methyl)tetrahydro-2H-pyran-3-yl)azetidine-1-sulfonamide], the “hERG % Remaining” value (30 μM compound) is given as “+++ (≥66%)”. On to `CC(C)N(C(=O)c1cc(F)ccc1Oc1cncnc1N1CC2(CCN(C[C@@H]3CC[C@@H](NS(=O)(=O)C4CC4)CO3)CC2)C1)[C@@H]1CCOC1` [Example 164, 2-((4-(7-(((2S,5R)-5-(Cyclopropanesulfonamido)tetrahydro-2H-pyran-2-yl)methyl)-2,7-diazaspiro[3.5]nonan-2-yl)pyrimidin-5-yl)oxy)-5-fluoro-N-isopropyl-N-((R)-tetrahydrofuran-3-yl)benzamide], for which the “hERG % Remaining” value was “+++ (≥66%)” (10 μM compound) and “+++ (≥66%)” (30 μM compound). As for `CCN(CC)S(=O)(=O)N[C@@H]1CC[C@@H](CN2CCC3(CC2)CN(c2ncncc2Oc2ccc(F)cc2C(=O)N(C(C)C)[C@@H]2CCOC2)C3)OC1` [Example 165, 2-((4-(7-(((2S,5R)-5-((N,N-Diethylsulfamoyl)amino)tetrahydro-2H-pyran-2-yl)methyl)-2,7-diazaspiro[3.5]nonan-2-yl)pyrimidin-5-yl)oxy)-5-fluoro-N-isopropyl-N-((R)-tetrahydrofuran-3-yl)benzamide], the “hERG % Remaining” value reads like this: (10 μM compound) “+++ (≥66%)”; (30 μM compound) “++ (233% and ≤66%)”. In the case of `CC(C)N(C(=O)c1cc(F)ccc1Oc1cncnc1N1CC2(CCN(C[C@@H]3CC[C@@H](NS(=O)(=O)N(C)C)CO3)CC2)C1)[C@@H]1CCOC1` [Example 167, 2-((4-(7-(((2S,5R)-5-((N,N-Dimethylsulfamoyl)amino)tetrahydro-2H-pyran-2-yl)methyl)-2,7-diazaspiro[3.5]nonan-2-yl)pyrimidin-5-yl)oxy)-5-fluoro-N-isopropyl-N-((R)-tetrahydrofuran-3-yl)benzamide], the “hERG % Remaining” value is listed as “+++ (≥66%)” (30 μM compound) and “+++ (≥66%)” (100 μM compound).

`CCN(CC)S(=O)(=O)N[C@@H]1CC[C@@H](CN2CCC3(CC2)CN(c2ncncc2Oc2ccc(F)cc2C(=O)N(C(C)C)[C@H]2CCOC2)C3)OC1` [Example 175, 2-((4-(7-(((2S,5R)-5-((N,N-Diethylsulfamoyl)amino)tetrahydro-2H-pyran-2-yl)methyl)-2,7-diazaspiro[3.5]nonan-2-yl)pyrimidin-5-yl)oxy)-5-fluoro-N-isopropyl-N-((S)-tetrahydrofuran-3-yl)benzamide]: the “hERG % Remaining” value is “++ (233% and ≤66%)” (10 μM compound); “+ (<33%)” (30 μM compound). In the case of `CC(C)N(CC#N)C(=O)c1cc(F)ccc1Oc1cncnc1N1CC2(CCN(C[C@@H]3CC[C@@H](NS(=O)(=O)N(C)C)CO3)CC2)C1` [Example 181, N-(Cyanomethyl)-2-((4-(7-(((2S,5R)-5-((N,N-dimethylsulfamoyl)amino)tetrahydro-2H-pyran-2-yl)methyl)-2,7-diazaspiro[3.5]nonan-2-yl)pyrimidin-5-yl)oxy)-5-fluoro-N-isopropylbenzamide], the “hERG % Remaining” value (30 μM compound) is on record as “+++ (≥66%)”. With `CC(C)N(CC#N)C(=O)c1cc(F)ccc1Oc1cncnc1N1CC2(CCN(C[C@@H]3CC[C@@H](NS(=O)(=O)N4CCC4)CO3)CC2)C1` [Example 182, 2-((4-(7-(((2S,5R)-5-(Azetidine-1-sulfonamido)tetrahydro-2H-pyran-2-yl)methyl)-2,7-diazaspiro[3.5]nonan-2-yl)pyrimidin-5-yl)oxy)-N-(cyanomethyl)-5-fluoro-N-isopropylbenzamide], for the setting “30 μM compound”, the “hERG % Remaining” value was “+++ (≥66%)”. Still for that read-out and setting: in the case of `CC(C)N(CCC#N)C(=O)c1cc(F)ccc1Oc1cncnc1N1CC2(CCN(C[C@@H]3CC[C@@H](NS(=O)(=O)N(C)C)CO3)CC2)C1` [Example 183, N-(2-Cyanoethyl)-2-((4-(7-(((2S,5R)-5-((N,N-dimethylsulfamoyl)amino)tetrahydro-2H-pyran-2-yl)methyl)-2,7-diazaspiro[3.5]nonan-2-yl)pyrimidin-5-yl)oxy)-5-fluoro-N-isopropylbenzamide] it was “+++ (≥66%)”; in that of `CC(C)N(CC(F)F)C(=O)c1cc(F)ccc1Oc1nncnc1N1CC2(CCN(C[C@@H]3CC[C@@H](NS(=O)(=O)N4CCC4)CO3)CC2)C1` [Example 189, 2-((5-(7-(((2S,5R)-5-(Azetidine-1-sulfonamido)tetrahydro-2H-pyran-2-yl)methyl)-2,7-diazaspiro[3.5]nonan-2-yl)-1,2,4-triazin-6-yl)oxy)-N-(2,2-difluoroethyl)-5-fluoro-N-isopropylbenzamide], “+++ (≥66%)”. Consider `CC(C)N(C(=O)c1cc(F)ccc1Oc1nncnc1N1CC2(CCN(C[C@@H]3CC[C@@H](NS(=O)(=O)C4CC4)CO3)CC2)C1)C(C)C` [Example 196, 2-((5-(7-(((2S,5R)-5-(Cyclopropanesulfonamido)tetrahydro-2H-pyran-2-yl)methyl)-2,7-diazaspiro[3.5]nonan-2-yl)-1,2,4-triazin-6-yl)oxy)-5-fluoro-N,N-diisopropylbenzamide], for which the “hERG % Remaining” value (30 μM compound) was “+++ (≥66%)”. Consider `CCNS(=O)(=O)N[C@@H]1CC[C@@H](CN2CCC3(CC2)CN(c2ncnnc2Oc2ccc(F)cc2C(=O)N(C(C)C)C(C)C)C3)OC1` [Example 198, 2-((5-(7-(((2S,5R)-5-((N-Ethylsulfamoyl)amino)tetrahydro-2H-pyran-2-yl)methyl)-2,7-diazaspiro[3.5]nonan-2-yl)-1,2,4-triazin-6-yl)oxy)-5-fluoro-N,N-diisopropylbenzamide], for which the “hERG % Remaining” value (30 μM compound) was “+++ (≥66%)”.

Take `CC(C)N(C(=O)c1cc(F)ccc1Oc1nncnc1N1CC2(CCN(C[C@@H]3CC[C@@H](NS(=O)(=O)N4CCC4)CO3)CC2)C1)C(C)C` [Example 199, 2-((5-(7-(((2S,5R)-5-(Azetidine-1-sulfonamido)tetrahydro-2H-pyran-2-yl)methyl)-2,7-diazaspiro[3.5]nonan-2-yl)-1,2,4-triazin-6-yl)oxy)-5-fluoro-N,N-diisopropylbenzamide]: the “hERG % Remaining” value (30 μM compound) is listed as “+++ (≥66%)”. On the same count and under the same terms, in the case of `C[C@@H]1COC[C@@H](C)N1C(=O)c1cc(F)ccc1Oc1cncnc1N1CC2(CCN(C[C@@H]3CC[C@@H](NS(=O)(=O)N4CCC[C@@H]4C)CO3)CC2)C1` [Example 209, (S)-N-((3R,6S)-6-((2-(5-(2-((3R,5R)-3,5-Dimethylmorpholine-4-carbonyl)-4-fluorophenoxy)pyrimidin-4-yl)-2,7-diazaspiro[3.5]nonan-7-yl)methyl)tetrahydro-2H-pyran-3-yl)-2-methylpyrrolidine-1-sulfonamide] it was “+++ (≥66%)”; in that of `CC(C)N(CC(F)F)C(=O)c1cc(F)ccc1Oc1cncnc1N1CC2(CCN(C[C@@H]3CC[C@@H](NS(=O)(=O)N(C)CCCO)CO3)CC2)C1` [Example 214, N-(2,2-difluoroethyl)-5-fluoro-2-((4-(7-(((2S,5R)-5-((N-(3-hydroxypropyl)-N-methylsulfamoyl)amino)tetrahydro-2H-pyran-2-yl)methyl)-2,7-diazaspiro[3.5]nonan-2-yl)pyrimidin-5-yl)oxy)-N-isopropylbenzamide], “+++ (≥66%)”; in that of `CC(C)N(C(=O)c1cc(F)ccc1Oc1cncnc1N1CC2(CCN(C[C@@H]3CC[C@@H](NS(=O)(=O)N4CC5(CCOC5)C4)CO3)CC2)C1)C(C)C` [Example 223, 2-((4-(7-(((2S,5R)-5-(6-Oxa-2-azaspiro[3.4]octane-2-sulfonamido)tetrahydro-2H-pyran-2-yl)methyl)-2,7-diazaspiro[3.5]nonan-2-yl)pyrimidin-5-yl)oxy)-5-fluoro-N,N-diisopropylbenzamide], “+++ (≥66%)”. With `CC(C)N(CC(F)F)C(=O)c1cc(F)ccc1Oc1cncnc1N1CC2(CCN(C[C@@H]3CC[C@@H](NS(=O)(=O)N(C)CCO)CO3)CC2)C1` [Example 239, N-(2,2-difluoroethyl)-5-fluoro-2-((4-(7-(((2S,5R)-5-((N-(2-hydroxyethyl)-N-methylsulfamoyl)amino)tetrahydro-2H-pyran-2-yl)methyl)-2,7-diazaspiro[3.5]nonan-2-yl)pyrimidin-5-yl)oxy)-N-isopropylbenzamide], the “hERG % Remaining” value (30 μM compound) is “+++ (≥66%)”.
